Results published in PMC6352937, “Inhibition of protein phosphatase-1 and -2A by ellagitannins: structure-inhibitory potency relationships and influences on cellular systems” (Journal of Enzyme Inhibition and Medicinal Chemistry, 2019).

How the values were obtained:
PP2Ac = test: Protein phosphatase assay with 32P-MLC20, native PP2Ac; assay type: biochemical; details: native PP2Ac from rabbit skeletal muscle; 1 µM 32P-MLC20; 10 min preincubation; mean ± SD
Method: (§1) Protein phosphatase activity of either skeletal muscle PP1c or PP2Ac (1.9–2.2 nM), or rPP1cα or rPP1cδ (2.71–3.72 nM), or FLAG-MYPT1-PP1c (∼9 nM) was assayed at 30 °C in absence or presence of polyphenol compounds (0.1–100 µM) in 20 mM Tris/HCl (pH 7.4), 0.1% 2-mercaptoethanol (30 µL). The purified phosphatase samples or HeLa lysates in 300-fold dilution (1.8–3.6 µg/ml) in the presence or absence of 2 µM I2 were preincubated with increasing concentration of the polyphenol compounds (0–100 µM) for 10 min then the reaction was started by the addition of 1 µM ^32P-MLC20 and incubated for 10 min. Polyphenol-treated HeLa cells were washed then lysed in 50 mM Tris/HCl (pH 8.0), 150 mM NaCl, 1% (V/V) Triton X-100, 0.15% (w/v) protease inhibitor cocktail. The phosphatase activity was assayed with 1 µM ^32P-MLC20 for 30 s in 3-fold final dilution (0.24–0.43 mg/ml). The reactions were terminated by the addition of 200 µL of 10% trichloroacetic acid and 200 µL of 6 mg/mL BSA solution. The samples were centrifuged for 3 min at 10,000 rpm and the supernatants (370 µL) were transferred into scintillation vials and the radioactivity of the released ^32Pi was determined in Tri-Carb 2800TR scintillation counter.
(§2) The ellagitannins (Figure 1) assayed on the activity of PP1c or PP2Ac in this study are similar to PGG in composition, but they differ structurally in two important aspects: (i) all of them include hexahydroxydiphenoyl unit linked in various positions, except for pedunculagin which includes two of these linkages; (ii) tellimagrandin I, pedunculagin, and praecoxin B have free glycosidic hydroxyls, while GHG has an unmodified hydroxyl at position 3 of the glucopyranose ring. […] Inhibition of the phosphatase activity by ellagitannins in HeLa cell lysate was also assessed. First, we determined the activity of PP1 and PP2A in the lysates using I2 to inhibit PP1, and low concentration of OA (2 nM) to suppress PP2A specifically, in order to determine the contribution of PP1 and PP2A to the phosphatase activity of lysates (Figure 2(E)).
(§3) Figure 2. The effect of ellagitannins on the activity of PP1 and PP2A. Ellagitannins (0.1–100 µM) were preincubated with the phosphatase samples for 10 min and the phosphatase activity was determined in triplicates with 1 µM ^32P-MLC20 substrate as described in “Materials and methods” section. […] The effect of tellimagrandin I on the activity of rPP1cα (^) and rPP1cδ (●) (C), or FLAG-MYPT1-PP1cδ (▼) (D), or on the phosphatase activity of HeLa lysate in the presence of I2 (□) (F). The effect of I2 and OA on the phosphatase activity of HeLa lysate (E). Phosphatase activity in the absence of ellagitannins, I2 or OA was taken as 100%. Data are means ± SD (n = 3–5).

HeLa lysate = test: Phosphatase activity of HeLa cell lysate (32P-MLC20); assay type: biochemical, human; details: HeLa lysate in 300-fold dilution; 1 µM 32P-MLC20; mean ± SD
Method: as §1, §2, §3

PP1c = test: Protein phosphatase assay with 32P-MLC20, native PP1c; assay type: biochemical; details: native PP1c from rabbit skeletal muscle; 1 µM 32P-MLC20; 10 min preincubation; mean ± SD
Method: as §1, §2, §3

rPP1cα = target: T1, rPP1cα (Homo sapiens, UniProt P62136); test: Microscale thermophoresis (MST); assay type: binding; details: unlabelled rPP1cα, intrinsic fluorescence (NT.LabelFree)
T1 construct: FLAG; made in house
T1 sequence (P62136 whole entry): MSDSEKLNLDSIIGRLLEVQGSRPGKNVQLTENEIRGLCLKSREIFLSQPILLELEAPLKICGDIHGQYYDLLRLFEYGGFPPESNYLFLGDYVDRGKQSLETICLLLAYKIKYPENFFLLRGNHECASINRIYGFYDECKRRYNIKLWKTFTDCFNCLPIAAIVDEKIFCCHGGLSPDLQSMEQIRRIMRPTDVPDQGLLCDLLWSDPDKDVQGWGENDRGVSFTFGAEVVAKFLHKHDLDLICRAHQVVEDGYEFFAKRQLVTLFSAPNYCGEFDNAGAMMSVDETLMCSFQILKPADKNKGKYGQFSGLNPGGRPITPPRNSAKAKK
Method: Figure 3. […] The changes in either, the intrinsic fluorescence of unlabelled rPP1cα upon binding to tellimagrandin I and PGG, or changes in fluorescent signal from rPP1cα extrinsically labelled with NT647 dye upon binding with EGCG, were determined at a range of concentration of polyphenols, and the fractions bound are presented. Data points are means ± SD (n = 3).

HeLa cells [1] = test: HeLa cell viability, Alamar-blue assay; assay type: cell-based, human; details: 24 h incubation, serum free; 0-50 µM tested
Method: HeLa cells and tsa201 cells were cultured as recommended by the supplier. Prior to treatments HeLa cells were serum starved in MEM medium supplemented with 2 mM L-glutamine for 17 h. For phosphatase activity assay cells were treated with increasing concentration of polyphenol compounds (1–50 µM) for 1 h. To assess cell viability by Alamar-blue assay serum starved cells were treated with ellagitannins (1–50 µM) for 24 h in serum free MEM medium. The media was exchanged for resazurin (20 µM) containing serum free media and the cells were incubated for 2 h to enhance resorufin formation by the viable cells. The emission of resorufin was measured by a fluorimeter at 620 nm.
Figure 4. Distinct influence of ellagitannins on the survival and phosphatase activity of HeLa cells. The effect of tellimagrandin I and mahtabin A was assayed on the survival (A) and the phosphatase activity (B) of HeLa cells in 0–50 µM concentration range as detailed in Materials and methods. The cell survival and the phosphatase activity in the absence of ellagitannins were taken as 100%. Data represent means ± SD (n = 3). ANOVA *p < .05, **p < .01, ***p < .001, n.s.: not significant.

HeLa cells [2] = test: Phosphatase activity of polyphenol-treated HeLa cells; assay type: cell-based, human; details: 1 h incubation; 0-50 µM tested
Method: as §1
HeLa cells and tsa201 cells were cultured as recommended by the supplier. […] The emission of resorufin was measured by a fluorimeter at 620 nm. […]

SNAP-25^Thr138 = test: Phosphorylation of SNAP-25 Thr138 in cortical synaptosomes (Western blot); assay type: cell-based, mouse; details: synaptosomes treated 45 min at 30 °C; ellagitannins 1-100 µM, TMC 10 µM
Method: (§4) Preparation of synaptosomes from murine brain cortex was carried out as described previously. Functional synaptosomes were kept in Krebs buffer (118 mM NaCl, 5 mM KCl, 25 mM NaHCO3, 1 mM MgCl2, 10 mM D-glucose, pH 7.4). After preparation, synaptosomes were treated with either tellimagrandin I or mahtabin A in 1, 10 or 100 µM final concentrations, or with 10 µM tautomycetin (TMC) for 45 min at 30 °C. After the treatments synaptosomes were applied for exocytosis assay or were lysed and the protein lysates were subjected to Western blot. For exocytosis assay an already established protocol[25] was used. FM 2–10 water-soluble styryl dye was incorporated first into the outer leaflet of synaptosome membrane, then into the synaptosomes. Exocytosis was induced by addition of 30 mM KCl to the synaptosomes. The fluorescent intensity of FM 2–10 styryl dye negatively correlated with the extent of synatposomal exocytosis and was measured by Fluoroskan FL (excitation: 488 nm, emission: 540 nm). Western blot of synaptosome proteins was carried out as described previously[24]^,[25].
Figure 5. […] E: Representative Western blot with anti- SNAP-25^pThr138 specific antibody. F: Relative changes in the amount of SNAP-25^pThr138 determined by densitometry of the Western blots normalised on the bands obtained for the loading controls. Data are means ± SD (n = 3). ANOVA *p < .05, **p < .01, ***p < .001, n.s.: not significant.

[3] = system: mouse cortical synaptosomes; test: KCl induced exocytosis of cortical synaptosomes (FM 2-10 dye); assay type: cell-based; details: 30 mM KCl; FM 2-10 fluorescence; 45 min treatment
Method: as §4
Figure 5. […] E: Representative Western blot with anti- SNAP-25^pThr138 specific antibody. F: Relative changes in the amount of SNAP-25^pThr138 determined by densitometry of the Western blots normalised on the bands obtained for the loading controls. Data are means ± SD (n = 3). […]

SMILES	IC50 (PP2Ac)	IC50 (HeLa lysate)	IC50 (PP1c)	Kd (rPP1cα)	Effect on viability (survival) of HeLa cells (HeLa cells [1])	Effect on phosphatase activity of HeLa cells (HeLa cells [2])	Effect on phosphorylation level of SNAP-25^Thr138 (SNAP-25^Thr138)	Effect on KCl induced synaptosomal exocytosis [3]
O=C(O[C@@H]1O[C@@H]2COC(=O)c3cc(O)c(O)c(O)c3-c3c(cc(O)c(O)c3O)C(=O)O[C@H]2[C@H](O)[C@H]1OC(=O)c1cc(O)c(O)c(O)c1)c1cc(O)c(O)c(O)c1 [GHG, 1,2-di-O-galloyl-4,6-(S)-hexahydroxydiphenoyl-β-D-glucose]	> 100 µM	13 ± 3.3 µM	1.41 ± 0.3 µM	–	–	–	–	–
O=C(OC[C@H]1O[C@@H](OC(=O)c2cc(O)c(O)c(O)c2)[C@H](OC(=O)c2cc(O)c(O)c(O)c2)[C@@H](OC(=O)c2cc(O)c(O)c(O)c2)[C@@H]1OC(=O)c1cc(O)c(O)c(O)c1)c1cc(O)c(O)c(O)c1 [PGG, penta-O-galloyl-β-D-glucose]	–	–	–	3.08 ± 0.35 µM	–	–	–	–
O=C(OC[C@H]1O[C@@H](OC(=O)c2cc(O)c(O)c(O)c2)[C@@H]2OC(=O)c3cc(O)c(O)c(O)c3-c3c(cc(O)c(O)c3O)C(=O)O[C@H]2[C@@H]1OC(=O)c1cc(O)c(O)c(O)c1)c1cc(O)c(O)c(O)c1 [mahtabin A]	33.8 ± 8.44 µM	6.19 ± 0.37 µM	0.41 ± 0.18 µM	–	without effect	without effect	increased the amount of phosphorylated SNAP-25^Thr138	suppressed exocytosis
O=C1OC[C@H]2OC(O)[C@@H]3OC(=O)c4cc(O)c(O)c(O)c4-c4c(cc(O)c(O)c4O)C(=O)O[C@H]3[C@@H]2OC(=O)c2cc(O)c(O)c(O)c2-c2c1cc(O)c(O)c2O (some centres unmarked) [pedunculagin]	> 100 µM	33.9 ± 4.54 µM	~2.47 µM	–	–	–	–	–
